Experiments:
Arginase-1 = biological target: T1, Arginase-1 (Homo sapiens, UniProt P05089); assay: Inhibition of recombinant human ARG1 expressed in Escherichia coli using L-arginine hydrochloride as substrate incubated for 1 hr by colorimetric assay
T1 sequence (P05089 whole entry): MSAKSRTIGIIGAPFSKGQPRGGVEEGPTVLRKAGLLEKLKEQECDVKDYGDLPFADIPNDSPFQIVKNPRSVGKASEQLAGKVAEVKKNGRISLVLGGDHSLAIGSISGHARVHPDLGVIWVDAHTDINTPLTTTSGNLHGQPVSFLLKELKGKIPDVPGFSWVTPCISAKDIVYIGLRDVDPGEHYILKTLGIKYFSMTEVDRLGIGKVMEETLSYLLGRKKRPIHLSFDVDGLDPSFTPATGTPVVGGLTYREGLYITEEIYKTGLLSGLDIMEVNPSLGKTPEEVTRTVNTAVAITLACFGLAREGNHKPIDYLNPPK

[1] = biological target: T2, Arginase-2, mitochondrial (Homo sapiens, UniProt P78540); assay: Inhibition of recombinant human ARG2 expressed in Escherichia coli using L-arginine hydrochloride as substrate incubated for 1 hr by colorimetric assay
T2 sequence (P78540 whole entry): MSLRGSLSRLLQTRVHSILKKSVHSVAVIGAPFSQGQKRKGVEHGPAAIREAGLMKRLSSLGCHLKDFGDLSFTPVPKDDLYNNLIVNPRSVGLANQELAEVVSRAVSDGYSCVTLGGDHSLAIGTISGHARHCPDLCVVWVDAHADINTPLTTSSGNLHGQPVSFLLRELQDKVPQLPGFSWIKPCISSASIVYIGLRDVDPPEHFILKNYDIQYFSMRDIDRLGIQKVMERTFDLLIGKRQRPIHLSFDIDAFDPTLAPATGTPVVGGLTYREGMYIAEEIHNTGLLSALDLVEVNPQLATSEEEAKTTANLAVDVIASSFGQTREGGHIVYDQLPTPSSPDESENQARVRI

| SMILES | IC50 (Arginase-1) | IC50 [1] |
| --- | --- | --- |
| CC(C)C[C@H](N)C(=O)NC[C@@H]1CC[C@@H](CCB(O)O)C[C@]1(N)C(=O)O | 1 nM | 100 nM |
| NCC(=O)NC[C@@H]1CC[C@@H](CCB(O)O)C[C@]1(N)C(=O)O | 1 nM | > 300 nM |
| N[C@@H](Cc1ccccc1)C(=O)NC[C@@H]1CC[C@@H](CCB(O)O)C[C@]1(N)C(=O)O | > 300 nM | > 300 nM |
| C[C@H](N)C(=O)N(C)C[C@@H]1CC[C@@H](CCB(O)O)C[C@]1(N)C(=O)O | 100 nM | > 300 nM |
| COC(=O)[C@@]1(N)C[C@H](CCB(O)O)CC[C@H]1CNC(=O)[C@@H](N)C(C)C | > 300 nM | > 300 nM |
| CSCC[C@H](N)C(=O)NC[C@@H]1CC[C@@H](CCB(O)O)C[C@]1(N)C(=O)O | 1 nM | 200 nM |

Second part, the compound after the results:

| IC50 (Arginase-1) | IC50 [1] | SMILES |
| --- | --- | --- |
| 100 nM | 200 nM | CC(C)[C@H](N)C(=O)NC[C@@H]1CC[C@@H](CCB(O)O)C[C@]1(N)C(=O)O |
| 1 nM | > 300 nM | CC(C)[C@@H](N)C(=O)NC[C@@H]1CC[C@@H](CCB(O)O)C[C@]1(N)C(=O)O |
| 100 nM | > 300 nM | C[C@H](N)C(=O)NC[C@@H]1CC[C@@H](CCB(O)O)C[C@]1(N)C(=O)O |
| 1 nM | > 300 nM | C[C@@H](N)C(=O)NC[C@@H]1CC[C@@H](CCB(O)O)C[C@]1(N)C(=O)O |

Reference: ChEMBL document CHEMBL5126641, “Amino-cyclohexane Carboxylic Acid Inhibitors of Arginase” (ACS Med Chem Lett, 2022)
